Several values for one entry are separate records, joined by “and”; a condition that tells them apart may be missing. Equal values may be shown once. Toxic doses and inconclusive results are not listed.
Test system: C3H/He mice, Gardner lymphosarcoma 6C3HED ip, survival T/C
Experiment: NCI In Vivo Anticancer Drug Screen. Data for tumor model Lymphosarcoma Gardner 6C3HED (intraperitoneal) in C3H/He mice
Conditions: higher = longer survival
Procedure: The antitumor activity of compounds was measured in mice bearing transplantable tumors. Survival or tumor size were measured and the results are expressed as the measurement made in the treated group (T) divided by the measurement made in the vehicle treated control group (C). The tumor model used in this assay is Lymphosarcoma Gardner 6C3HED (intraperitoneal) in C3H/He mice

[1] = endpoint: median survival time, dose: 100.0 mg/kg/injection, schedule: Q01DX005 (ip), vehicle: water
[2] = endpoint: median survival time, dose: 200.0 mg/kg/injection, schedule: Q01DX005 (ip), vehicle: water
[3] = endpoint: survival time, mean or median, dose: 12.5 mg/kg/injection, schedule: Q01DX010 (ip), vehicle: saline
[4] = endpoint: survival time, mean or median, dose: 50.0 mg/kg/injection, schedule: Q01DX010 (ip), vehicle: saline
[5] = endpoint: survival time, mean or median, dose: 100.0 mg/kg/injection, schedule: Q01DX010 (ip), vehicle: saline
[6] = endpoint: survival time, mean or median, dose: 10.0 mg/kg/injection, schedule: Q01DX010 (ip), vehicle: saline
[7] = endpoint: survival time, mean or median, dose: 20.0 mg/kg/injection, schedule: Q01DX010 (ip), vehicle: saline
[8] = endpoint: survival time, mean or median, dose: 25.0 mg/kg/injection, schedule: Q01DX010 (ip), vehicle: saline

NC(CC(=O)O)C(=O)O (stereo not given) was tested, and the T/C (endpoint: median survival time, dose: 50.0 mg/kg/injection, schedule: Q01DX005 (ip), vehicle: water) was 88 % of control, the T/C [1] was 92 % of control and the T/C [2] was 92 % of control.
In the case of Cc1cc2nc3c(=O)[nH]c(=O)nc-3n(CC(O)C(O)C(O)C(O)CO)c2cc1C (stereo not given), the T/C [3] is reported as 97 % of control, the T/C [4] is reported as 100 % of control and the T/C [5] is reported as 87 % of control and 100 % of control.
CCN(CCNc1ccc(C)c2sc3cc(Cl)ccc3c(=O)c12)CC(C)O (stereo not given) was tested, and the T/C (endpoint: survival time, mean or median, dose: 7.8 mg/kg/injection, schedule: Q01DX010 (ip), vehicle: saline) was 110 % of control, the T/C (endpoint: survival time, mean or median, dose: 15.6 mg/kg/injection, schedule: Q01DX010 (ip), vehicle: saline) was 100 % of control and the T/C (endpoint: survival time, mean or median, dose: 31.3 mg/kg/injection, schedule: Q01DX010 (ip), vehicle: saline) was 100 % of control. The T/C (endpoint: survival time, mean or median, dose: 62.5 mg/kg/injection, schedule: Q01DX010 (ip), vehicle: saline) was 88 % of control and 96 % of control.
CS(=O)(=O)OCCCCOS(C)(=O)=O was tested, and the T/C (endpoint: survival time, mean or median, dose: 1.56 mg/kg/injection, schedule: Q01DX010 (ip), vehicle: saline) was 95 % of control, the T/C (endpoint: survival time, mean or median, dose: 3.13 mg/kg/injection, schedule: Q01DX010 (ip), vehicle: saline) was 90 % of control and the T/C (endpoint: survival time, mean or median, dose: 6.25 mg/kg/injection, schedule: Q01DX010 (ip), vehicle: saline) was 95 % of control. The T/C [3] was 104 % of control.
For [N-]=[N+]=CC(=O)CCC(N)C(=O)O (stereo not given), the T/C (endpoint: survival time, mean or median, dose: 0.03 mg/kg/injection, schedule: Q01DX010 (ip), vehicle: saline) was 100 % of control and 105 % of control, the T/C (endpoint: survival time, mean or median, dose: 0.05 mg/kg/injection, schedule: Q01DX010 (ip), vehicle: saline) was 100 % of control and 118 % of control and the T/C (endpoint: survival time, mean or median, dose: 0.1 mg/kg/injection, schedule: Q01DX010 (ip), vehicle: saline) was 118 % of control and 120 % of control.
In the case of CN(C)c1ccc(/C=C/c2ccnc3ccccc23)cc1, the T/C (endpoint: survival time, mean or median, dose: 16.0 mg/kg/injection, schedule: Q01DX010 (ip), vehicle: saline) is reported as 90 % of control and the T/C (endpoint: survival time, mean or median, dose: 32.0 mg/kg/injection, schedule: Q01DX010 (ip), vehicle: saline) is reported as 93 % of control.
With CN(C)[C@@H]1C(=O)C(C(N)=O)=C(O)[C@@]2(O)C(=O)C3=C(O)c4c(O)cccc4C[C@H]3C[C@@H]12 the T/C (endpoint: survival time, mean or median, dose: 3.75 mg/kg/injection, schedule: Q01DX010 (ip), vehicle: saline) was 93 % of control, the T/C (endpoint: survival time, mean or median, dose: 7.5 mg/kg/injection, schedule: Q01DX010 (ip), vehicle: saline) was 90 % of control and the T/C (endpoint: survival time, mean or median, dose: 15.0 mg/kg/injection, schedule: Q01DX010 (ip), vehicle: saline) was 90 % of control.
N=C(N)c1ccc(Nc2ccc(C(=N)N)cc2)cc1 was tested, and the T/C (endpoint: survival time, mean or median, dose: 0.75 mg/kg/injection, schedule: Q01DX010 (ip), vehicle: saline) was 103 % of control, the T/C (endpoint: survival time, mean or median, dose: 1.5 mg/kg/injection, schedule: Q01DX010 (ip), vehicle: saline) was 119 % of control and the T/C (endpoint: survival time, mean or median, dose: 3.0 mg/kg/injection, schedule: Q01DX010 (ip), vehicle: saline) was 107 % of control. The T/C (endpoint: survival time, mean or median, dose: 6.0 mg/kg/injection, schedule: Q01DX010 (ip), vehicle: saline) was 100 % of control and 103 % of control, the T/C (endpoint: survival time, mean or median, dose: 12.0 mg/kg/injection, schedule: Q01DX010 (ip), vehicle: saline) was 89 % of control and the T/C (endpoint: survival time, mean or median, dose: 24.0 mg/kg/injection, schedule: Q01DX010 (ip), vehicle: saline) was 96 % of control.
In the case of CN(Cc1cnc2nc(N)nc(N)c2n1)c1c(Cl)cc(C(=O)NC(CCC(=O)O)C(=O)O)cc1Cl (stereo not given), the T/C [6] is reported as 300 % of control, the T/C [7] is reported as 300 % of control and the T/C (endpoint: survival time, mean or median, dose: 40.0 mg/kg/injection, schedule: Q01DX010 (ip), vehicle: saline) is reported as 300 % of control. The T/C (endpoint: survival time, mean or median, dose: 80.0 mg/kg/injection, schedule: Q01DX010 (ip), vehicle: saline) was 300 % of control.
For CCOC(=O)NP(=O)(N1CC1)N1CC1, the T/C (endpoint: survival time, mean or median, dose: 2.5 mg/kg/injection, schedule: Q01DX010 (ip), vehicle: saline) was 100 % of control and 107 % of control, the T/C (endpoint: survival time, mean or median, dose: 5.0 mg/kg/injection, schedule: Q01DX010 (ip), vehicle: saline) was 107 % of control and 117 % of control and the T/C [6] was 157 % of control. The T/C [7] was 92 % of control and 103 % of control.
In the case of Nc1nc(=O)n(C2CC(O)C(CO)O2)cc1Br (stereo not given), the T/C [8] is reported as 107 % of control, the T/C [4] is reported as 107 % of control and the T/C [5] is reported as 96 % of control and 107 % of control. The T/C (endpoint: survival time, mean or median, dose: 200.0 mg/kg/injection, schedule: Q01DX010 (ip), vehicle: saline) was 100 % of control and 107 % of control.
In the case of C=CC(CN1CC1)OC(C)=O (stereo not given), the T/C (endpoint: survival time, mean or median, dose: 2.0 mg/kg/injection, schedule: Q01DX010 (ip), vehicle: saline) is reported as 107 % of control and the T/C (endpoint: survival time, mean or median, dose: 4.0 mg/kg/injection, schedule: Q01DX010 (ip), vehicle: saline) is reported as 123 % of control.
In the case of NC(CC(=O)NO)C(=O)O (stereo not given), the T/C [1] is reported as 96 % of control, the T/C [2] is reported as 107 % of control and the T/C (endpoint: median survival time, dose: 400.0 mg/kg/injection, schedule: Q01DX005 (ip), vehicle: water) is reported as 115 % of control. The T/C (endpoint: median survival time, dose: 800.0 mg/kg/injection, schedule: Q01DX005 (ip), vehicle: water) was 111 % of control.
COc1cc(-c2ccc(Nc3ccccc3C(=O)O)c(OC)c2)ccc1Nc1ccccc1C(=O)O was tested, and the T/C [3] was 117 % of control, the T/C [8] was 107 % of control and 117 % of control and the T/C [4] was 117 % of control and 118 % of control. For the same compound, the T/C [5] was 96 % of control.

Reference: PubChem BioAssay AID230 (DTP/NCI, 2004)
